Values quoted from earlier work as cited in EP4160208A1, “URINE SEDIMENT STAINING LIQUID” (TOYOBO CO., LTD., priority 2020, dated 2021).

Row | Structure (SMILES) | pKa
1 | NC(=O)CN(CC(=O)O)CC(=O)O [ADA] | 6.80
2 | O=S(=O)(O)CCN(CCO)CCO [BES] | 7.15
3 | O=S(=O)(O)CCN1CCN(CCO)CC1 [HEPES] | 7.55
4 | O=S(=O)(O)CCNC(CO)(CO)CO [TES] | 7.50
5 | O=C(O)CNC(CO)(CO)CO [Tricine] | 8.15
